Test results as given in patent publication US6391595B1, “Transferase and amylase, process for producing the enzymes, use thereof, and gene coding for the same” (Kirin Beer Kabushiki Kaisha, priority 1994, dated 2002).
Read-outs that look alike come from different tables or passages of the source.

Assays:
[1] = system: transferase derived from the Sulfolobus solfataricus strain KM1; assay: Influence of activators and inhibitors on glucosyltrehalose-producing activity; type: biochemical; settings: for Activating or inhibitory effect: added with the substrate
[2] = target: T1, amylase derived from the Sulfolobus solfataricus strain KM1 (Saccharolobus solfataricus, UniProt Q55088); assay: biochemical; type: biochemical; settings: for Activating or inhibitory effect: added with the substrate
T1 construct: endogenous in cells; host or cells: Sulfolobus solfataricus strain KM1 cells
T1 sequence (Q55088 1-559): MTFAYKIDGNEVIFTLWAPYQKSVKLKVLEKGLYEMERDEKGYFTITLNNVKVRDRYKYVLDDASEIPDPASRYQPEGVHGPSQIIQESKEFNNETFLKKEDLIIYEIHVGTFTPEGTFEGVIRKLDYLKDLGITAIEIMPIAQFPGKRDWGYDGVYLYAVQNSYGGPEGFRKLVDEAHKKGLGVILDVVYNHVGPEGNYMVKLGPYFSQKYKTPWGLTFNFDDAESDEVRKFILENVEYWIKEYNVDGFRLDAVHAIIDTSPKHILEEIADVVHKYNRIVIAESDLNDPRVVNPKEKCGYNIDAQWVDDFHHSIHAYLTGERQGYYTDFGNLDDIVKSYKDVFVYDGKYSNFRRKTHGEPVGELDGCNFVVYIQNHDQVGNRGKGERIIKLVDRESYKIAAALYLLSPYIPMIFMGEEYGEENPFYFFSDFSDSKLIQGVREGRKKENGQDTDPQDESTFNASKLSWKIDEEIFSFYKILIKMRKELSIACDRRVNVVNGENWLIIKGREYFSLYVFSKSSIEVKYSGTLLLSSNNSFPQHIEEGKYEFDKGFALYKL

[3] = system: debranching enzyme derived from the Sulfolobus solfataricus strain KM1; assay: Influence of activators and inhibitors on debranching enzyme activity; type: biochemical; settings: for Residual activity: Concentration 5 mM
[4] = target: T1, amylase derived from the Sulfolobus solfataricus strain KM1; assay: Substrate specificity of the purified amylase (hydrolyzing properties, TSK-gel Amide-80 HPLC); type: biochemical; settings: for Liberated oligosaccharide / Production rate of mono- and disaccharides: 25.0 Units/ml enzyme, 10 mM substrate (amylopectin and soluble starch 2.8%); for Production rate of mono- and disaccharides: 1 Unit = 1 μmol per hour
Description: The hydrolyzing properties were analyzed by allowing 25.0 Units/ml (in terms of the enzymatic activity when maltotriosyltrehalose is used as the substrate) of the present purified enzyme to act on the various 10 mM substrates (except amylopectin and soluble starch were used as 2.8% solutions) listed in Table 16 below, and the hydrolyzed products were also analyzed.
Incidentally, each enzymatic activity in Table 16 is expressed with such a unit as 1 Unit equals the activity of liberating 1 μmol of each of the monosaccharide and disaccharide per hour.

[5] = target: T2, recombinant novel amylase (Saccharolobus solfataricus, UniProt Q55088); assay: Substrate specificity of the recombinant novel amylase (crude enzyme solution); settings: for Liberated oligosaccharide / Production rate of mono- and disaccharides: 35.2 Units/ml crude enzyme solution, 10 mM substrate (amylopectin and soluble starch 3.0%); for Production rate of mono- and disaccharides: 1 Unit = 1 μmol per hour
T2 sequence (Q55088 1-559): T1 sequence (Q55088 1-559)

[6] = target: T3, swine pancreatic α-amylase (Sus scrofa, UniProt P00690); assay: Hydrolysis of oligosaccharides by pancreatic α-amylase (comparative); type: biochemical; settings: 1 Unit/ml α-amylase, 10 mM substrate, pH 6.9, 20° C.; for Production rate of di- and trisaccharides: 1 Unit = 1 umol per hour
T3 construct: purchased Sigma Co. A-6255
T3 sequence (P00690 16-511): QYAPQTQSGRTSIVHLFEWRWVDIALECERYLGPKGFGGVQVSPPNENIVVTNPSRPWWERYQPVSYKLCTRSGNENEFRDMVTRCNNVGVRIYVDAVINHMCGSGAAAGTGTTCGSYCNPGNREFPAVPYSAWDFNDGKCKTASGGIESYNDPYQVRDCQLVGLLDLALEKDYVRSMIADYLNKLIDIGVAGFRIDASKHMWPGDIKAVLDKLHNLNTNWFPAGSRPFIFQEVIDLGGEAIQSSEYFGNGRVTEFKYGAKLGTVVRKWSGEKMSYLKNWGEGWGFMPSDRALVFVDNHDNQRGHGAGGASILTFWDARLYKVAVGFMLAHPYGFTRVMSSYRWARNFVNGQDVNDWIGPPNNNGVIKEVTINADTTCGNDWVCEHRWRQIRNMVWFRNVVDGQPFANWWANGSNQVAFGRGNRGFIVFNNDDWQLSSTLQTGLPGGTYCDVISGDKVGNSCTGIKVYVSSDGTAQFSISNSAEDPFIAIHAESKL
Description: Swine pancreatic α-amylase is known to hydrolyze maltooligosaccharide from the reducing end by two or three sugar units [“Denpun.Kanren Toushitsu Kouso Jikken-hou” (“Experimental methods in enzymes for starch and relating saccharides”), p 135, written by Michinori Nakamura and Keiji Kainuma, published by Gakkai-Shuppan-Sentah]. Upon this, a swine pancreatic α-amylase (manufactured by Sigma Co., A-6255) was analyzed the hydrolyzing properties and the hydrolysates as a comparative example for the novel amylase of the present invention. […] The activity of producing disaccharide and trisaccharide was employed as the index of the enzymatic activity, and the analysis was performed by the TSK-gel Amide-80 HPLC analyzing method described in Example II-1.
Incidentally, the enzymatic activity values in Table 17 were expressed with such a unit as 1 Unit equals the activity of liberating 1 umol of each oligosaccharide per hour.

[7] = Concentration 5 mM, read-out: Residual activity

SMILES | Residual activity ([1]; Concentration 5 mM) [%] | Residual activity ([2]; Concentration 5 mM) [%] | Residual activity [3] [%] | Liberated oligosaccharide [4] | Production rate of mono- and disaccharides [4] [units/ml] | also measured
[Cl-].[Cl-].[Co+2] [CoCl2] | 88.5 | 97.1 | 87.2 |  |  | 
O=C(O)CN(CCN(CC(=O)O)CC(=O)O)CC(=O)O [EDTA] |  |  |  |  |  | Residual activity [1]: 96.8%; Residual activity [2]: 106.3%
OC[C@H]1O[C@H](O[C@H]2O[C@H](CO)[C@@H](O)[C@H](O)[C@H]2O)[C@H](O)[C@@H](O)[C@@H]1O [α,α-Trehalose, α,α-trehalose] |  |  |  | not decomposed | 0 | Residual activity ([1]; Concentration 0.5 mM): 107.8%; remaining activity at 500 µM ([2]; Concentration 0.5 mM, read-out: Residual activity): 98.2%; Action of the enzyme on the substrate [4]: did not act; Action of the enzyme on the substrate [5]: did not act; Liberated oligosaccharide [5]: not decomposed; Production rate of mono- and disaccharides [5]: 0 units/ml
[Ca+2].[Cl-].[Cl-] [CaCl2] | 93.6 | 97.1 | 105.7 |  |  | Activating or inhibitory effect [1]: would not be activated; Activating or inhibitory effect [2]: would not be activated; Activating or inhibitory effect ([3]; added with the substrate): would not be activated
OC[C@H]1O[C@H](O[C@H]2O[C@H](CO)[C@@H](O[C@H]3O[C@H](CO)[C@@H](O[C@H]4O[C@H](CO)[C@@H](O[C@H]5O[C@H](CO)[C@@H](O[C@H]6O[C@H](CO)[C@@H](O[C@H]7O[C@H](CO)[C@@H](O)[C@H](O)[C@H]7O)[C@H](O)[C@H]6O)[C@H](O)[C@H]5O)[C@H](O)[C@H]4O)[C@H](O)[C@H]3O)[C@H](O)[C@H]2O)[C@H](O)[C@@H](O)[C@@H]1O [Maltopentaosyltrehalose] |  |  |  | G5 + Trehalose | 25.5 | Liberated oligosaccharide [6]: G3 + Maltosyltrehalose; Production rate of di- and trisaccharides [6]: 4.36 units/ml
O=[N+]([O-])[O-].[Ag+] [AgNO3] | 121.0 | 105.7 |  |  |  | 
OC[C@H]1O[C@H](OC[C@H]2OC(O)[C@H](O)[C@@H](O)[C@@H]2O)[C@H](O)[C@@H](O)[C@@H]1O (stereo partly drawn) [Isomaltose] |  |  |  | not decomposed | 0 | Action of the enzyme on the substrate [4]: did not act; Action of the enzyme on the substrate [5]: did not act; Liberated oligosaccharide [5]: not decomposed; Production rate of mono- and disaccharides [5]: 0 units/ml
OCC1OC(OC2OC(CO)C(OC3OC(CO)C(OC4OC(CO)C(O)C(O)C4O)C(O)C3O)C(O)C2O)C(O)C(O)C1O [Maltosyltrehalose, α-D-maltotriosyl α-D-glucopyranoside] |  |  |  | G2 + Trehalose | 3.93 | Liberated oligosaccharide [6]: not decomposed; Production rate of di- and trisaccharides [6]: 0 units/ml; Liberated oligosaccharide [5]: G2 + Trehalose; Production rate of mono- and disaccharides [5]: 4.52 units/ml
O=S(=O)([O-])[O-].[Fe+2] [FeSO4] | 108.3 | 73.5 | 74.1 |  |  | 
[Cl-].[Cl-].[Mg+2] [MgCl2] | 111.3 | 93.5 | 82.9 |  |  | 
CCCCCCCCCCCCOS(=O)(=O)[O-].[Na+] [SDS, sodium dodecyl sulfate] | 0.0 |  |  |  |  | Activating or inhibitory effect [1]: inhibitory effects; remaining activity at 5000 µM [2, 7]: 0%; Activating or inhibitory effect [2]: inhibitory effects
OCC1OC(OC2OC(CO)C(OC3OC(CO)C(O)C(O)C3O)C(O)C2O)C(O)C(O)C1O [Glucosyltrehalose, α-D-maltosyl α-D-glucopyranoside] |  |  |  | Glucose + Trehalose | 0.04 | Liberated oligosaccharide [6]: not decomposed; Production rate of di- and trisaccharides [6]: 0 units/ml; Liberated oligosaccharide [5]: Glucose + Trehalose; Production rate of mono- and disaccharides [5]: 0.01 units/ml
OCC1OC(OC2OC(CO)C(OC3OC(CO)C(OC4OC(CO)C(OC5OC(CO)C(O)C(O)C5O)C(O)C4O)C(O)C3O)C(O)C2O)C(O)C(O)C1O [Maltotriosyltrehalose, α-D-maltotetraosyl α-D-glucopyranoside] |  |  |  | G3 + Trehalose | 25.0 | Liberated oligosaccharide [6]: G2 + Glucosyltrehalose; Production rate of di- and trisaccharides [6]: 0.03 units/ml; Liberated oligosaccharide [5]: G3 + Trehalose; Production rate of mono- and disaccharides [5]: 35.21 units/ml
[Cl][Fe]([Cl])[Cl] [FeCl3] | 90.0 | 38.0 | 39.0 |  |  | 
OC[C@H]1O[C@H](O[C@H]2O[C@H](CO)[C@@H](O[C@H]3O[C@H](CO)[C@@H](O[C@H]4O[C@H](CO)[C@@H](O[C@H]5O[C@H](CO)[C@@H](O[C@H]6O[C@H](CO)[C@@H](O)[C@H](O)[C@H]6O)[C@H](O)[C@H]5O)[C@H](O)[C@H]4O)[C@H](O)[C@H]3O)[C@H](O)[C@H]2O)[C@H](O)[C@@H](O)[C@@H]1O [Maltotetraosyltrehalose] |  |  |  | G4 + Trehalose | 27.3 | Liberated oligosaccharide [6]: G3 + Glucosyltrehalose; Production rate of di- and trisaccharides [6]: 2.57 units/ml
O[C@H](CS)[C@H](O)CS (racemic) [Dithiothreitol] | 84.5 |  | 106.0 |  |  | remaining activity at 5000 µM [2, 7]: 116%
OCCS [2-Mercaptoethanol] | 100.3 | 141.7 | 104.1 |  |  | 
[Cl][Mn][Cl] [MnCl2] | 74.2 | 101.8 | 91.2 |  |  | 
